The text below walks through data of US20060247311A1, “Methods for treating lower urinary tract disorders using alpha2delta subunit calcium channel modulators with smooth muscle modulators” (priority 2003, published 2006).

Data set [1] has as its system α2δ subunit of calcium channels. As to conditions: Bryans et al. (1999); cited from earlier work.
For data set [2] the following is noted: preclinical and clinical studies, in contrast to gabapentin itself, cited from earlier work.
For data set [3], the system named is bladder instability and bladder capacity in SCI rats. As to conditions: SCI rats (Cheng et al., 1995); cited from earlier work.
The subject of data set [4] is reduction in bladder capacity following continuous infusion of dilute acetic acid. The experiment in a line: Dilute acetic acid model, acute anesthetized in vivo model (bladder capacity by cystometry). The note with it: rat, isobologram construction, i.v.; both drugs alone and low-dose combinations. From the text:
Urethane anesthetized (1.2 g/kg) normal female rats were utilized in this study.
Animal Preparation: Female rats (250-300 g body weight) were anesthetized with urethane (1.2 g/kg) and a saline-filled catheter (PE-50) was inserted into the jugular vein for intravenous drug administration. […] The abdominal cavity was moistened with saline and closed by covering with a thin plastic sheet in order to maintain access to the bladder for emptying purposes. Fine silver or stainless steel wire electrodes were inserted into the external urethral sphincter (EUS) percutaneously for electromyography (EMG).
Following 30 minutes of AA infusion, 3 vehicle injections were made at 20 minute intervals to determine vehicle effects, if any.
P<0.050 was considered significant.

Another data set is described as follows: in vivo. The note with it: female, rat, iv; for AUC(0-t): AUC0-t (Mean); for Cmax: Cmax (Mean); for Vd: Vz (Mean); for half-life: t1/2 (Mean).
Data set [5] concerns reduction in bladder capacity following continuous infusion of dilute acetic acid. The experiment in a line: Dilute acetic acid model in cats (bladder capacity, voiding efficiency). The class given is in vivo. The note with it: cat, gabapentin 30 mg/kg dose alone.
Description: The objective of this study was to determine the ability of an α2δ subunit calcium channel modulator in combination with a smooth muscle modulator to reverse the reduction in bladder capacity seen following continuous infusion of dilute acetic acid in a cat model, a commonly used model of overactive bladder.
Alpha-chloralose anesthetized (50-100 mg/kg) normal female cats (2.5-3.5 kg; Harlan) were utilized in this study.
Animals were dosed by volume of injection=body weight in kg.
Female cats (2.5-3.5 kg; Harlan) had their food removed the night before the experiment. The following morning, the cat was anesthetized with isoflurane and prepped for surgery using aseptic technique. Polyethylene catheters were surgically placed to permit the measurement of bladder pressure, urethral pressure, arterial pressure, respiratory rate as well as for the delivery of drugs. Fine wire electrodes were implanted alongside the external urethral anal sphincter. Following surgery, the cats were slowly switched from the gas anesthetic isoflurane (2-3.5%) to alpha-chloralose (50-100 mg/kg). During control cystometry, saline was slowly infused into the bladder (0.5-1.0 m/min) for 1 hour. […] After assessing the cystometric variables under these baseline conditions, the effects of test drug(s) on micturition were determined via a 3-5 point dose response protocols. […]
Where [6] appears, read: 100 mg/kg, gabapentin in rat plasma after 100 mg/kg gabapentin i.v., alone (Gab) or with 3 mg/kg oxybutynin (Com), group Mean, outliers excluded.
Where [7] appears, read: 100 mg/kg, gabapentin in rat plasma after 100 mg/kg gabapentin i.v., alone (Gab) or with 3 mg/kg oxybutynin (Com), group Mean.
The mark [8] stands for this setting: female, rat, in vivo, iv, 3 mg/kg.

Where “and” joins values, the source holds several entries; their conditions need not be identical. Identical values can stand only once.

Regarding `CC(C)C[C@H](CN)CC(=O)O` [Pregabalin, (S)-(3-aminomethyl)-5-methylhexanoic acid], the “binding affinity for the α2δ subunit of calcium channels compared with gabapentin” value in data set [1] was “even higher binding affinity”.

As to `CC(OC(=O)NCC1(CC(=O)O)CCCCC1)OC(=O)C(C)C` (stereo not drawn) [XP13512], the “blood levels of gabapentin across a broad range of oral doses” value in data set [2] (oral) is given as “dose proportional blood levels of gabapentin”. Moreover, the “absorption from the large intestine” value in data set [2] is given as “absorbed efficiently from the large intestine”.

As for `COc1cc(CNC(=O)CCCC/C=C/C(C)C)ccc1O` [capsaicin], in data set [3], the “bladder capacity to voiding” value is “not effect bladder capacity to voiding” and the bladder instability result is “reduce bladder instability”.

On to `NCC1(CC(=O)O)CCCCC1` [gabapentin, 1-(aminomethyl) cyclohexaneacetic acid], for which, in data set [4], the “common maximal effect / target value, return to % of saline control bladder capacity (individual responses)” value is given as 31 % of saline control and the “common maximal effect, return to % of saline control bladder capacity (group mean data)” value is listed as 43 % of saline control. In the data set “in vivo” (setting [6]), this compound showed an exposure AUC(0-t) of 158 µg·h/mL and a Cmax of 98600 ng/mL. In addition, the total exposure AUC(0-inf) in “in vivo” (100 mg/kg, AUC0-∞ (Mean), gabapentin in rat plasma after 100 mg/kg gabapentin i.v., alone (Gab) or with 3 mg/kg oxybutynin (Com), group Mean) was 270 µg·h/mL. The AUC(0-inf) in the data set “in vivo” (100 mg/kg, AUC0-∞, gabapentin in rat plasma after 100 mg/kg gabapentin i.v., alone (Gab) or with 3 mg/kg oxybutynin (Com), individual animals) was 325 µg·h/mL. The clearance in the data set “in vivo” (100 mg/kg, CL (Mean), gabapentin in rat plasma after 100 mg/kg gabapentin i.v., alone (Gab) or with 3 mg/kg oxybutynin (Com), group Mean) turned out to be 6.52 mL/min/kg. Besides, in the data set “in vivo” (100 mg/kg, CL, gabapentin in rat plasma after 100 mg/kg gabapentin i.v., alone (Gab) or with 3 mg/kg oxybutynin (Com), individual animals), the clearance came to 5.12 mL/min/kg. For the same compound, the Tmax in the data set “in vivo” (100 mg/kg, Tmax, gabapentin in rat plasma after 100 mg/kg gabapentin i.v., alone (Gab) or with 3 mg/kg oxybutynin (Com), individual animals) is 15 min. Moreover, in the data set “in vivo” (setting [7]), the Vd worked out at 1.24 L/kg and the half-life came out at 128 min. In addition, the “AUC0-∞” value (gabapentin in rat plasma after 100 mg/kg gabapentin i.v., alone (Gab) or with 3 mg/kg oxybutynin (Com), individual animals, listed as Gab) was 1.37e+07 ng·min/mL and 2.19e+07 ng·min/mL and 1.44e+07 ng·min/mL. In addition, in data set [5], the “effect on bladder capacity” value was “no significant effect”.

`CCN(CC)CC#CCOC(=O)C(O)(c1ccccc1)C1CCCCC1` (stereo not drawn) [oxybutynin, 4-diethylaminio-2-butynyl phenylcyclohexyglycolate]: in data set [4], the “common maximal effect / target value, return to % of saline control bladder capacity (individual responses)” value is 31 % of saline control and the “common maximal effect, return to % of saline control bladder capacity (group mean data)” value is on record as 43 % of saline control. For the same compound, in the data set “in vivo” (3 mg/kg), the Tmax is 15 min, the exposure AUC(0-t) is 0.335 µg·h/mL, the Cmax turned out to be 329 ng/mL and the Vd turned out to be 10.1 L/kg. Also, the half-life in the data set “in vivo” (3 mg/kg) stood at 54 min. In addition, in “in vivo” (3 mg/kg, AUC0-∞ (Mean)), the AUC(0-inf) was 0.41 µg·h/mL. The clearance in the data set “in vivo” (3 mg/kg, CL (Mean)) was 134 mL/min/kg. Also, under setting [8], the “AUC0-t (Mean)” value stood at 144 ng·min/mL, the “AUC0-∞ (Mean)” value was determined as 289 ng·min/mL and the “Vz (Mean)” value came out at 1310.999 L/kg.

As a reminder, the AUC(0-t) is the area under the concentration-time curve up to a stated or last time point. A lower AUC(0-t) goes with low exposure. In general, AUC(0-inf) refers to total exposure, with the tail of the curve extrapolated. A word on the clearance: it is a measure of how efficiently the substance is removed, as volume per time. Low readings indicate a low capacity for elimination, high ones a high capacity for elimination. By Cmax is commonly meant the highest concentration seen after dosing. Broadly, the Tmax is the time from dosing to the highest level. One may read the Vd as the apparent volume that relates the amount in the body to the concentration in plasma or blood. For orientation: half-life means the time in which the quantity being followed falls by half. Read a high half-life as slow loss.
